Results on two compounds are retold here after US8293704B2, “Crystalline form of linaclotide” (priority 2009, dated 2012).

Bridge positions count the residues as written; N and C are the ends. Peptide text beside a SMILES is read from it.

A short description of this series: Solid-state chemical stability of amorphous and α-crystalline linaclotide (HPLC assay after storage at 40° C./75% RH). It counts as physicochemical. Particulars: for Degradation Products / Normalized Assay / Acetylation Product / Hydrolysis Product / Non-disulfide linked multimers / Water-Mediated Products: induction sealed 45 cc HDPE bottles; for Remaining fraction (not assay, not degradation products), may comprise multimers: 3 months at 40° C./75% RH. How it is done: The relative chemical purity and stability of amorphous and crystalline linaclotide was studied using reverse phase high performance liquid chromatography (HPLC). The chemical identification was conducted using reverse phase high performance liquid chromatography coupled with mass spectroscopy (HPLC-MS). The mass spectroscopic analysis was performed at Enhance MS scan (EMS) mode with positive ionization and a scan range (m/z) of 600-1600.
A Perkin Elmer series 200 LC instrument (Perkin Elmer, Waltham, Mass.) was used with a YMC Pro C18 column (150 mm×3.0 mm, 3 μm) (Waters Corporation, Milford, Mass.). The column temperature was set at 40° C. while the auto sampler temperature was maintained at 4° C. using a peltier tray. The injection volume was 50 μl. A gradient (0.6 ml/minute) run was used comprising of two solvents; A (97.9% Water, 2% Acetonitrile, 0.1% Trifluoroacetic Acid) and B (94.9% Acetonitrile, 5% Water, 0.1% Trifluoroacetic Acid). The gradient was set according to the scheme described in Table 10. The effluent was detected at 220 nm using a UV detector.
The solid-state chemical stability of the α-crystalline form of linaclotide was then compared to that of amorphous form linaclotide. Known quantities of test materials were placed in 45 cc high-density polyethylene bottles. The bottles were induction sealed and placed in 40° C./75% RH stability chamber. Two bottles were then withdrawn at the time points of 2 weeks, at 1 month, at 2 months, and at 3 months, and were analyzed after adequate dilution for assay.

[1] abbreviates: 3 months storage, 40° C./75% RH.

As for `C[C@@H]1NC(=O)[C@@H]2CCCN2C(=O)[C@H](CC(N)=O)NC(=O)[C@@H]2CSSC[C@H](N)C(=O)N[C@H]3CSSC[C@H](NC1=O)C(=O)N[C@@H]([C@@H](C)O)C(=O)NCC(=O)N[C@H](C(=O)N[C@@H](Cc1ccc(O)cc1)C(=O)O)CSSC[C@H](NC(=O)[C@H](Cc1ccc(O)cc1)NC(=O)[C@H](CCC(=O)O)NC3=O)C(=O)N2` [Amorphous Linaclotide, linaclotide] (H-CCEYCCNPACTGCY-OH; disulfide 1-6, 2-10, 5-13), the “Remaining fraction (not assay, not degradation products), may comprise multimers” value was 19.2%. Where the note is “1 Month at 40° C./75% RH”, the “Degradation Products” value is given as 5.6 Wt % and the “Normalized Assay” value is on record as 79.1 Wt %. In addition, for the setting “2 Months at 40° C./75% RH”, the “Degradation Products” value was found to be 9.3 Wt % and the “Normalized Assay” value came to 74.5 Wt %. Moreover, under “2 Weeks at 40° C./75% RH”, the “Degradation Products” value was 3.6 Wt % and the “Normalized Assay” value was determined as 84.0 Wt %. Further, where the note is “3 Months at 40° C./75% RH”, the “Degradation Products” value was 12.0 Wt % and the “Normalized Assay” value turned out to be 68.8 Wt %. Also, under setting [1], the “Acetylation Product” value turned out to be 2.39 Wt %, the “Hydrolysis Product” value is on record as 0.30 Wt %, the Non-disulfide linked multimers stood at 1.96 Wt % and the “Water-Mediated Products” value stood at 7.00 Wt %. Where the note is “Initial, solid state”, the “Degradation Products” value is 2.1 Wt % and the “Normalized Assay” value is on record as 100.0 Wt %.

On to `C[C@@H]1NC(=O)[C@@H]2CCCN2C(=O)[C@H](CC(N)=O)NC(=O)[C@@H]2CSSC[C@H](N)C(=O)N[C@H]3CSSC[C@H](NC1=O)C(=O)N[C@@H]([C@@H](C)O)C(=O)NCC(=O)N[C@H](C(=O)N[C@@H](Cc1ccc(O)cc1)C(=O)O)CSSC[C@H](NC(=O)[C@H](Cc1ccc(O)cc1)NC(=O)[C@H](CCC(=O)O)NC3=O)C(=O)N2` [α-Crystalline Linaclotide, linaclotide] (H-CCEYCCNPACTGCY-OH; disulfide 1-6, 2-10, 5-13), for which, under “1 Month at 40° C./75% RH”, the “Degradation Products” value is 3.8 Wt % and the “Normalized Assay” value stood at 91.9 Wt %. Besides, under “2 Months at 40° C./75% RH”, the “Degradation Products” value stood at 5.1 Wt % and the “Normalized Assay” value stood at 89.7 Wt %. Besides, where the note is “2 Weeks at 40° C./75% RH”, the “Degradation Products” value is on record as 2.6 Wt % and the “Normalized Assay” value is recorded as 94.8 Wt %. Moreover, for the setting “3 Months at 40° C./75% RH”, the “Degradation Products” value is given as 7.5 Wt % and the “Normalized Assay” value stood at 88.4 Wt %. For the same compound, where the note is “listed as α-form linaclotide”, the “Remaining fraction (not assay, not degradation products), may comprise multimers” value came out at 4.1%. In addition, under setting [1], the “Acid-induced hydrolysis (in words)” value is listed as “pronounced”, the “Acetylation Product” value turned out to be 0.31 Wt %, the “Hydrolysis Product” value was 5.70 Wt % and the Non-disulfide linked multimers stood at 0.07 Wt %. For the same compound, under setting [1], the “Water-Mediated Products” value is 0.40 Wt %. For the same compound, under “40° C./75% RH, up to 3 months”, the “Concentration of degradation products compared with amorphous linaclotide (in words)” value is recorded as “significantly lower concentration of degradation products”, the “Multimer formation compared with amorphous linaclotide (in words)” value was “significantly less multimer formation” and the “Stability profile compared with amorphous linaclotide (in words)” value is listed as “substantially better stability profile than amorphous linaclotide”. Further, under “Initial, solid state”, the “Degradation Products” value amounted to 2.4 Wt % and the “Normalized Assay” value is listed as 100.0 Wt %.
